# From PMC10712727, “Safety, Tolerability, and Pharmacokinetics of Senaparib, a Novel PARP1/2 Inhibitor, in Chinese Patients With Advanced Solid Tumors: A Phase I Trial” (The Oncologist, 2023)
# Tested on: patients with advanced solid tumors
# Experiment: Safety: treatment-emergent and senaparib-related adverse events graded per NCI CTCAE v4.03
# Type: in vivo
# Experimental: This phase I, open-label, multicenter, dose-escalation, and dose-expansion study was conducted at three national clinical institutions in China. […] At baseline, all patients enrolled in the dose-escalation phase had to have at least one evaluable lesion, and those in the dose-expansion period had to have at least one measurable lesion, according to Response Evaluation Criteria in Solid Tumors version 1.1 (RECIST v1.1).[16] Entry to the dose-expansion cohort required the presence of a BRCA mutation, with the exception of patients with ovarian carcinoma, fallopian tube carcinoma, and primary peritoneal carcinoma. Full study eligibility criteria are provided in Supplementary Table S1.
# Dose escalation was conducted using a modified Fibonacci 3 + 3 method (Supplementary Fig. S1).[17] Patients were administered oral senaparib from a planned starting dose of 2 mg once daily (QD), with preliminary dose escalation to 120 mg via nine dose groups, in order of their entry into the study. At a given dose level, each patient received a single dose of senaparib followed by a 7-day washout period. They then entered a continuous dosing period to confirm the safety and PK profile, in which they received senaparib QD from day 1 to day 21 of each 3-week cycle. Progression to the next higher dose required approval from the Data Safety Monitoring Committee (DSMC) upon review of the safety and PK data of the previous dose. A 50-mg twice-daily (BID) dosing group was added (planned enrollment, n = 6 patients) based on a DSMC review of the safety, PK, and efficacy analysis of the completed QD dose groups in the phase I clinical trial of senaparib dose escalation in Australia (NCT03507543), which commenced prior to the start of this trial.
# The dose-expansion period included 3 populations: dose groups in which at least one patient achieved complete response (CR) or partial response (PR) per RECIST v1.1[16] and 1 dose group higher (evaluated for safety), as well as the dose group at the maximum tolerated dose (MTD)/recommended phase II dose (RP2D). Each of these groups included those patients in the respective dose-escalation group plus a planned additional 10 patients (approximately 20 patients in the MTD/RP2D group) with BRCA^mut+ solid tumors (ovarian, breast, or prostate cancer were preferred, and ovarian cancer could be BRCA wild type). Patients received senaparib monotherapy orally QD or BID (50-mg dose only) over each 3-week cycle until disease progression or unacceptable toxicity.
# DLTs were predefined toxicities (Supplementary Table S2) recorded over the 7 days following the single-dose administration of senaparib and during the first treatment cycle (day 1-day 21) for each dose group in the dose-escalation period only. The MTD was defined as the maximum dose at which ≤1/6 patients experienced a DLT. Senaparib PK parameters were derived from blood samples collected from patients after the single administration, and at regular intervals during the first cycle of the dose-escalation and dose-expansion periods. Plasma concentrations of senaparib were determined using high-performance liquid chromatography-tandem mass spectrometry. Tumor response was assessed every 6 weeks per RECIST v1.1,[16] recording objective response rate (ORR), disease control rate (DCR), duration of response (DOR), and progression-free survival (PFS) by dose level for all patients and for those harboring BRCA^mut+ tumors.
structure (smiles),measurement,setting,value
O=C(c1cc(Cn2c(=O)[nH]c(=O)c3c(F)cccc32)ccc1F)N1CCN(c2ncccn2)CC1 [Senaparib],"TRAEs Grade ≥3, events",40 mg QD n = 3,0 n ev
same,"TRAEs Grade ≥3, patients",40 mg QD n = 3,0 n (%)
same,"TRAEs, events",40 mg QD n = 3,6 n ev
same,"TRAEs, patients",40 mg QD n = 3,3 (100) n (%)
same,"Vomiting TRAE, All",40 mg QD n = 3,0 n (%)
same,"Vomiting TRAE, Gr≥3",40 mg QD n = 3,0 n (%)
same,"WBC decreased TRAE, All",40 mg QD n = 3,0 n (%)
same,"WBC decreased TRAE, Gr≥3",40 mg QD n = 3,0 n (%)
same,"ALT increased TRAE, All",50 mg BID n = 4,1 (25.0) n (%)
same,"ALT increased TRAE, Gr≥3",50 mg BID n = 4,0 n (%)
same,"AST increased TRAE, All",50 mg BID n = 4,1 (25.0) n (%)
same,"AST increased TRAE, Gr≥3",50 mg BID n = 4,0 n (%)
same,"Anemia TRAE, All",50 mg BID n = 4,3 (75.0) n (%)
same,"Anemia TRAE, Gr≥3",50 mg BID n = 4,2 (50.0) n (%)
same,"Any TEAE, All",50 mg BID n = 4,4 (100) n (%)
same,"Any TEAE, Gr≥3",50 mg BID n = 4,3 (75.0) n (%)
same,"Any TEAE, events",50 mg BID n = 4,32 n ev
same,"Any TEAE, patients",50 mg BID n = 4,4 (100) n (%)
same,"Any TRAE, All",50 mg BID n = 4,4 (100) n (%)
same,"Any TRAE, Gr≥3",50 mg BID n = 4,2 (50.0) n (%)
same,"Appetite decreased TRAE, All",50 mg BID n = 4,0 n (%)
same,"Appetite decreased TRAE, Gr≥3",50 mg BID n = 4,0 n (%)
same,"Asthenia TRAE, All",50 mg BID n = 4,1 (25.0) n (%)
same,"Asthenia TRAE, Gr≥3",50 mg BID n = 4,0 n (%)
same,"Blood bilirubin increased TRAE, All",50 mg BID n = 4,0 n (%)
same,"Blood bilirubin increased TRAE, Gr≥3",50 mg BID n = 4,0 n (%)
same,"Blood creatinine increased TRAE, All",50 mg BID n = 4,0 n (%)
same,"Blood creatinine increased TRAE, Gr≥3",50 mg BID n = 4,0 n (%)
same,"Hypokalemia TRAE, All",50 mg BID n = 4,0 n (%)
same,"Hypokalemia TRAE, Gr≥3",50 mg BID n = 4,0 n (%)
same,"Nausea TRAE, All",50 mg BID n = 4,2 (50.0) n (%)
same,"Nausea TRAE, Gr≥3",50 mg BID n = 4,0 n (%)
same,"Neutrophil count decreased TRAE, All",50 mg BID n = 4,0 n (%)
same,"Neutrophil count decreased TRAE, Gr≥3",50 mg BID n = 4,0 n (%)
same,"Platelet count decreased TRAE, All",50 mg BID n = 4,1 (25.0) n (%)
same,"Platelet count decreased TRAE, Gr≥3",50 mg BID n = 4,0 n (%)
same,"SAEs, events",50 mg BID n = 4,1 n ev
same,"SAEs, patients",50 mg BID n = 4,1 (25.0) n (%)
same,"TEAE Grade ≥3, events",50 mg BID n = 4,3 n ev
same,"TEAE Grade ≥3, patients",50 mg BID n = 4,3 (75.0) n (%)
same,"TEAEs leading to death, events",50 mg BID n = 4,0 n ev
same,"TEAEs leading to death, patients",50 mg BID n = 4,0 n (%)
same,"TEAEs leading to dose discontinuation, events",50 mg BID n = 4,0 n ev
same,"TEAEs leading to dose discontinuation, patients",50 mg BID n = 4,0 n (%)
same,"TEAEs leading to dose interruption, events",50 mg BID n = 4,1 n ev
same,"TEAEs leading to dose interruption, patients",50 mg BID n = 4,1 (25.0) n (%)
same,"TEAEs leading to dose reduction, events",50 mg BID n = 4,1 n ev
same,"TEAEs leading to dose reduction, patients",50 mg BID n = 4,1 (25.0) n (%)
same,"TRAEs Grade ≥3, events",50 mg BID n = 4,2 n ev
same,"TRAEs Grade ≥3, patients",50 mg BID n = 4,2 (50.0) n (%)
same,"TRAEs, events",50 mg BID n = 4,26 n ev
same,"TRAEs, patients",50 mg BID n = 4,4 (100) n (%)
same,"Vomiting TRAE, All",50 mg BID n = 4,2 (50.0) n (%)
same,"Vomiting TRAE, Gr≥3",50 mg BID n = 4,0 n (%)
same,"WBC decreased TRAE, All",50 mg BID n = 4,2 (50.0) n (%)
same,"WBC decreased TRAE, Gr≥3",50 mg BID n = 4,0 n (%)
same,"ALT increased TRAE, All",60 mg QD n = 5,0 n (%)
same,"ALT increased TRAE, Gr≥3",60 mg QD n = 5,0 n (%)
same,"AST increased TRAE, All",60 mg QD n = 5,0 n (%)
same,"AST increased TRAE, Gr≥3",60 mg QD n = 5,0 n (%)
same,"Anemia TRAE, All",60 mg QD n = 5,0 n (%)
same,"Anemia TRAE, Gr≥3",60 mg QD n = 5,0 n (%)
same,"Any TEAE, All",60 mg QD n = 5,5 (100) n (%)
same,"Any TEAE, Gr≥3",60 mg QD n = 5,2 (40.0) n (%)
same,"Any TEAE, events",60 mg QD n = 5,33 n ev
same,"Any TEAE, patients",60 mg QD n = 5,5 (100) n (%)
same,"Any TRAE, All",60 mg QD n = 5,5 (100) n (%)
same,"Any TRAE, Gr≥3",60 mg QD n = 5,0 n (%)
same,"Appetite decreased TRAE, All",60 mg QD n = 5,1 (20.0) n (%)
same,"Appetite decreased TRAE, Gr≥3",60 mg QD n = 5,0 n (%)
same,"Asthenia TRAE, All",60 mg QD n = 5,1 (20.0) n (%)
same,"Asthenia TRAE, Gr≥3",60 mg QD n = 5,0 n (%)
same,"Blood bilirubin increased TRAE, All",60 mg QD n = 5,0 n (%)
same,"Blood bilirubin increased TRAE, Gr≥3",60 mg QD n = 5,0 n (%)
same,"Blood creatinine increased TRAE, All",60 mg QD n = 5,1 (20.0) n (%)
same,"Blood creatinine increased TRAE, Gr≥3",60 mg QD n = 5,0 n (%)
same,"Hypokalemia TRAE, All",60 mg QD n = 5,1 (20.0) n (%)
same,"Hypokalemia TRAE, Gr≥3",60 mg QD n = 5,0 n (%)
same,"Nausea TRAE, All",60 mg QD n = 5,1 (20.0) n (%)
same,"Nausea TRAE, Gr≥3",60 mg QD n = 5,0 n (%)
same,"Neutrophil count decreased TRAE, All",60 mg QD n = 5,1 (20.0) n (%)
same,"Neutrophil count decreased TRAE, Gr≥3",60 mg QD n = 5,0 n (%)
same,"Platelet count decreased TRAE, All",60 mg QD n = 5,2 (40.0) n (%)
same,"Platelet count decreased TRAE, Gr≥3",60 mg QD n = 5,0 n (%)
same,"SAEs, events",60 mg QD n = 5,2 n ev
same,"SAEs, patients",60 mg QD n = 5,2 (40.0) n (%)
same,"TEAE Grade ≥3, events",60 mg QD n = 5,2 n ev
same,"TEAE Grade ≥3, patients",60 mg QD n = 5,2 (40.0) n (%)
same,"TEAEs leading to death, events",60 mg QD n = 5,0 n ev
same,"TEAEs leading to death, patients",60 mg QD n = 5,0 n (%)
same,"TEAEs leading to dose discontinuation, events",60 mg QD n = 5,1 n ev
same,"TEAEs leading to dose discontinuation, patients",60 mg QD n = 5,1 (20.0) n (%)
same,"TEAEs leading to dose interruption, events",60 mg QD n = 5,1 n ev
same,"TEAEs leading to dose interruption, patients",60 mg QD n = 5,1 (20.0) n (%)
same,"TEAEs leading to dose reduction, events",60 mg QD n = 5,0 n ev
same,"TEAEs leading to dose reduction, patients",60 mg QD n = 5,0 n (%)
same,"TRAEs Grade ≥3, events",60 mg QD n = 5,0 n ev
same,"TRAEs Grade ≥3, patients",60 mg QD n = 5,0 n (%)
same,"TRAEs, events",60 mg QD n = 5,27 n ev
same,"TRAEs, patients",60 mg QD n = 5,5 (100) n (%)
same,"Vomiting TRAE, All",60 mg QD n = 5,0 n (%)
same,"Vomiting TRAE, Gr≥3",60 mg QD n = 5,0 n (%)
same,"WBC decreased TRAE, All",60 mg QD n = 5,2 (40.0) n (%)
same,"WBC decreased TRAE, Gr≥3",60 mg QD n = 5,0 n (%)
same,"ALT increased TRAE, All",80 mg QD n = 9,1 (11.1) n (%)
same,"ALT increased TRAE, Gr≥3",80 mg QD n = 9,0 n (%)
same,"AST increased TRAE, All",80 mg QD n = 9,2 (22.2) n (%)
same,"AST increased TRAE, Gr≥3",80 mg QD n = 9,0 n (%)
same,"Anemia TRAE, All",80 mg QD n = 9,7 (77.8) n (%)
same,"Anemia TRAE, Gr≥3",80 mg QD n = 9,3 (33.3) n (%)
same,"Any TEAE, All",80 mg QD n = 9,9 (100) n (%)
same,"Any TEAE, Gr≥3",80 mg QD n = 9,6 (66.7) n (%)
same,"Any TEAE, events",80 mg QD n = 9,132 n ev
same,"Any TEAE, patients",80 mg QD n = 9,9 (100) n (%)
same,"Any TRAE, All",80 mg QD n = 9,9 (100) n (%)
same,"Any TRAE, Gr≥3",80 mg QD n = 9,5 (55.6) n (%)
